Source: PMC6331789, “Phytochemicals from Ruta graveolens Activate TAS2R Bitter Taste Receptors and TRP Channels Involved in Gustation and Nociception” (Molecules, 2015)
Entries after “also recorded” stand apart in the source; their conditions may differ.

Experiments:
TRPM5 = biological target: T1, TRPM5 (Homo sapiens, UniProt Q9NZQ8); experiment: In vitro membrane potential dye assay (FLIPR) on HEK293T cells stably overexpressing TRPM5; assay type: cell-based; settings: for TRPM5 screening result: single dose, qualitative
T1 construct: expressed in transfected cells
T1 sequence (Q9NZQ8 1-1165): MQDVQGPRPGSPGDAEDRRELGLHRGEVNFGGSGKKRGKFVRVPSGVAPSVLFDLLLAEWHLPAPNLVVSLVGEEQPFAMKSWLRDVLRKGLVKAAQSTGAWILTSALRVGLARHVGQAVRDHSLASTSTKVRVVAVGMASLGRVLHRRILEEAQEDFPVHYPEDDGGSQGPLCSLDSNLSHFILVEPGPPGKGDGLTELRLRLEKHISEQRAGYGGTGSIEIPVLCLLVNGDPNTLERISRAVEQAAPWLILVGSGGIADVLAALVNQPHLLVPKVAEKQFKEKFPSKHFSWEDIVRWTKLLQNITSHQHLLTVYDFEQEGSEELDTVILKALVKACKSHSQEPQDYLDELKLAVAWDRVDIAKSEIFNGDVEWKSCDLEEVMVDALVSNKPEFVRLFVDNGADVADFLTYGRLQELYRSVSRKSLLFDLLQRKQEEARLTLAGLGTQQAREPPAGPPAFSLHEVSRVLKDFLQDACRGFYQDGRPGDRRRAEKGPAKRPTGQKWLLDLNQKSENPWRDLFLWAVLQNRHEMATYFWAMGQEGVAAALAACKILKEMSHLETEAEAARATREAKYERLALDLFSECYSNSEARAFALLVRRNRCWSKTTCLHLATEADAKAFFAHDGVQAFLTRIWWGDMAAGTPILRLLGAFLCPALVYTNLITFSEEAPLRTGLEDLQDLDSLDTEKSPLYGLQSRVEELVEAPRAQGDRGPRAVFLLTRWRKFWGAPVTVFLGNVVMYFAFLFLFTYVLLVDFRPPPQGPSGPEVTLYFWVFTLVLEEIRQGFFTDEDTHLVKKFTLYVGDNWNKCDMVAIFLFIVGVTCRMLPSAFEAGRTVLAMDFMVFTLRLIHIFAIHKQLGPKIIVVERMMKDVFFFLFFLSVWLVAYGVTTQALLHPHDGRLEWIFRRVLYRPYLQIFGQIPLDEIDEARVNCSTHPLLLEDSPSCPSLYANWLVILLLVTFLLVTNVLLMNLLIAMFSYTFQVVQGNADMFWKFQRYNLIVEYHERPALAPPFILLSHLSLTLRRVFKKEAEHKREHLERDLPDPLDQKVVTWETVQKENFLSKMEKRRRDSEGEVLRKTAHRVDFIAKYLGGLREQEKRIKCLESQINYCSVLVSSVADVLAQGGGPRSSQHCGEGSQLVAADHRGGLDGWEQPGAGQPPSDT
From the text: (§1) Pure phytochemicals were submitted to in vitro assays with a platform of twenty cloned receptors of the bitter taste TAS2R family and four receptors of the TRP family related to the perception of taste and somatosensory sensations. All experiments have been repeated three times, each time with four replicates. […] For simplicity, only those bitter taste receptors having reproducible positive assay, namely TASR10, 14 and 49, are reported (Table 1).
(§2) For those compounds showing activity on one or more receptor(s), the concentration/response curves were plotted and the EC50 calculated.
(§3) For the biological tests, several compounds were purchased as references from different suppliers (Sigma Aldrich, ChromaDex, Irvine, CA, USA, and Tocris Bioscience, Bristol, UK) and dissolved in assay buffer (130 mM NaCl, 5 mM KCl, 1 mM MgCl2, 2 mM CaCl2, 5 mM NaHCO3 and 20 mM HEPES, pH 7.4) or in a mixture of assay buffer and DMSO, never exceeding a final DMSO concentration of 0.5% (v/v) to avoid toxic effects and possible artefacts on transfected cells.
(§4) All human TAS2R and G15Gi1 cDNAs were produced as reported in Bassoli et al. cDNAs for human TRPA1-M5-M8-V1-V4 were cloned into a pcDNA6 expression vector (Invitrogen-Thermo Fisher, Waltham, MA, USA).
(§5) All experiments were performed using HEK293T cells (ATCC).
For TRP platform experiments, cells were cultured in MEM/EBSS medium (ECB2071L EuroClone, Milan, Italy) plus 10% (v/v) fetal bovine serum (FBS) (26400-044 Gibco, Karlsruhe, Germany) and 1% (v/v) Pen/Strep 10K/10K stock (17-602E Lonza, Basel, Switzerland). Stable cell lines were generated overexpressing each TRP channel, and clones were selected with 500 µg/mL of G418 (ant-gn-5 Invivogen, Karlsruhe, Germany). To analyze TRP receptor responses, cells were plated at a concentration of 20,000 cells/well in 384-well plates (GR-4330 Twin Helix srl, Milan, Italy). Cellular responses were measured 24 h after seeding.
For TRPM5 experiments, cells were loaded 24 h after seeding with a Membrane Potential Dye (R8034 MDC) solution in assay buffer according to the manufacturer’s instructions and incubated at 37 °C for 1 h before acquisition. All experiments were performed using a fluorometric imaging plate reader (FLIPR^TETRA, Molecular Devices equipped with ICCD Camera from Stanford Photonics, INC, (Palo Alto, CA, USA) and kinetics were visualized with Molecular Devices’ Screenworks 3.0 (Sunnyvale, CA, USA).
(§6) For the calculation of concentration-response curves, responses were calculated as the difference between maximal and minimal relative fluorescence unit (RFU) values in a selected time window (11–60 s) and were normalized to the basal well fluorescence (Time Point 1, before compound injection) in order to compensate for differences in cell density (∆F/F0). All of the experiments have been repeated three times, each time with four replicates. All of the results are averages of at least four replicates. Raw data are available in Supplementary Material, Figures S3–S6.

TAS2R49 = biological target: T2, TAS2R49 (Homo sapiens, UniProt P59543); experiment: In vitro calcium imaging assay on cloned TAS2R49 in transfected HEK293T cells; assay type: cell-based; settings: for TAS2R49 screening result: single dose, qualitative
T2 construct: expressed in transfected cells; host or cells: HEK293T
T2 sequence (P59543 1-309): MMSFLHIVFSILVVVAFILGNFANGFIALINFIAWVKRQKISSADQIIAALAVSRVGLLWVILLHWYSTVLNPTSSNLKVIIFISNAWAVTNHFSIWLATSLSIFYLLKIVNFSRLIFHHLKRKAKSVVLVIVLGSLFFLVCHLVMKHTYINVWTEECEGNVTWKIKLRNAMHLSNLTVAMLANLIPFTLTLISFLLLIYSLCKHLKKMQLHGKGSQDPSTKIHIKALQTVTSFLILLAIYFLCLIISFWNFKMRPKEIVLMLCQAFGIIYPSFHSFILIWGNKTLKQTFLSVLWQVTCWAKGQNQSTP
From the text: as §1, §2, §3, §4, §5
For the bitter platform experiments, cells were cultured, transfected and analyzed as previously described.
For the bitter platform experiments, data analyses were performed as previously described.
as §6

Row | SMILES | TRPM5 screening result (TRPM5) | TAS2R49 screening result (TAS2R49) | Activity on TRPM5 (in words) (TRPM5) | EC50 (TRPM5; concentration/response curve, values with ≥ estimated) | Activity on TAS2R49 (in words) (TAS2R49) | EC50 (TAS2R49)
1 | C[C@@H]1O[C@@H](OC[C@H]2O[C@@H](Oc3c(-c4ccc(O)c(O)c4)oc4cc(O)cc(O)c4c3=O)[C@H](O)[C@@H](O)[C@@H]2O)[C@H](O)[C@H](O)[C@H]1O [Compound 1, rutin] | − | − |  |  |  | 
2 | C=CC(C)(C)c1cc2cc3c(cc2oc1=O)OC(C(C)(C)OC(C)=O)C3 (stereo not shown) [Compound 2, rutamarin] | + | − | activated | ≥ 26.7 µM |  | 
3 | COc1c2ccoc2cc2oc(=O)ccc12 [Compound 3, bergapten] | − | − |  |  |  | 
4 | COc1c2occc2cc2ccc(=O)oc12 [Compound 4, xanthotoxin] | − | ++ |  |  | responded; also recorded: able to activate | 12 µM
5 | COc1c2ccoc2c(OC)c2oc(=O)ccc12 [Compound 5, isopimpinellin] | − | − |  |  |  | 
6 | COc1cc2nc3occc3c(OC)c2cc1OC [Compound 7, kokusaginin] | − | − |  |  |  | 
7 | COc1ccc2c(OC)c3ccoc3nc2c1OC [Compound 8, skimmianine] | − | − |  |  |  | 
8 | CCCCCCCCCC(C)=O [Compound 9, 2-undecanone] | − | − |  |  |  | 
9 | CCCCCCCC(C)=O [Compound 10, 2-nonanone] | − | − |  |  |  | 
